Measurements from patent publication US5057513A, “Spiro-thiazepine derivatives useful as PAF antagonists” (Fujisawa Pharmaceutical Co., Ltd., priority 1989, dated 1991).
Values after ≈ are worked out from the molar mass of the structure shown. Where two headings read alike, the source gives them in different places.

Columns and labels:
[1] = test system: platelet aggregation induced with PAF; assay: Test 1 (Inhibition of platelet aggregation); assay type: cell-based, male Japanese white rabbit; settings: Oryctolagus cuniculus; rabbit platelet rich plasma; final concentration of PAF usually 32 nM; read-out: IC50 (concentration required to inhibit the platelet aggregation response by 50%)
Method: Blood was collected through the polyethylene catheter introduced into the carotid artery of male Japanese white rabbit (2.5 to 3 kg body weight). The blood was anticoagulated with 1 volume of 3.8% sodium citrate to 9 volume of blood. Platelet rich plasma (PRP) was prepared by centrifugation of the blood at 150 g for 10 minutes at room temperature. The PRP was diluted with platelet poor plasma obtained by further centrifugation of the blood at 1,000 g for 20 minutes. The platelet number was 5×10^5 cells/mm^3. Platelet aggregation induced with PAF [1-O-hexadecyl-2-O-acetyl-sn-glycero-3-phosphorylcholine] was measured by the nephelometric technique of Born and Cross [cf. Journal of Physiology 168, 178-188 (1963)] using HKK Hema tracer (trade name, made by Niko Bioscience Inc.).
Activity of inhibitor was expressed as IC50 value, i.e. concentration required to inhibit the platelet aggregation response by 50%. The final concentration of PAF was usually 32 nM.

[2] = test system: PAF-induced vascular permeability increase; assay: Inhibition of PAF-induced vascular permeability increase; assay type: in vivo, 6-week-old male ddY mice; settings: Mus musculus, ip; mice; intraperitoneally, 5 minutes before Evan's blue; PAF 50 ng intradermally; read-out: ED50 (effective dose required to inhibit PAF-induced vascular permeability increase by 50%)
Method: PAF (50 ng) was injected intradermally to the depilated back of 6-week-old male ddY mice. Evan's blue (1 mg) was injected intravenously 5 minutes before the PAF injection, and the test compound was administered intraperitoneally 5 minutes before the Evan's blue injection. Thirty minutes later, the animals were killed and the area of dye leakage was measured.
The inhibition was expressed as ED50 value, i.e. effective dose (mg/kg) required to inhibit PAF-induced vascular permeability increase by 50%.

[3] = test system: PAF-induced bronchoconstriction; assay: Effect of the test compound on PAF-induced bronchoconstriction in the guinea-pig; assay type: in vivo, Male Hartley guinea-pigs; settings: Cavia porcellus, po, orally 30 minutes before PAF (0.64 μg/ml, 1 ml/kg), read-out: ED50 (effective dose of the test compound to inhibit the PAF-induced bronchoconstriction by 50%)
Method: Male Hartley guinea-pigs (400-500 g) were anesthetized with sodium pentobarbital (25 mg/kg, intraperitoneally). The right jugular vein was catheterized for injection of PAF (0.64 μg/ml, 1 ml/kg), and the animals were tracheotomized and ventilated with a respiratory pump (Harvard B-34, 5 ml/stroke, 60 strocks/minutes).
The test compound was administered orally 30 minutes before challenge with PAF.
(ED50 : effective dose of the test compound to inhibit the PAF-induced bronchoconstriction by 50%).

[4] = test system: endotoxin-induced disseminated intravascular coagulation (serum FDP); assay: Effect of the test compound on the endotoxin-induced disseminated intravascular coagulation; assay type: in vivo, male Wister rats; settings: Rattus norvegicus, rats
Method: Conscious male Wister rats, 150-200 g body weight, 7 weeks old, were used in the experiment on endotoxin-induced disseminated intravascular coagulation (DIC). The animals were fasted before the experiment. A 10 mg/kg dose of endotoxin (E. coli) dissolved in saline was given as an injection via tail vein. Test compound was given orally 60 minutes before and 6 hours after endotoxin. The intravenous administration of the test compound into a tail vein was simultaneous with intravenous injection of endotoxin.
Arterial blood samples were taken 4 hours (Test compound; intravenously) and 24 hours (Test compound; orally) after endotoxin for measurements of serum FDP (fibrin degradation products), respectively. FDP was determined by the latex aggregation test.

[5] = test system: PAF-induced lethality; assay: Effect of the test compound on the PAF-induced lethality in rats; assay type: in vivo, male Wistar rats; settings: Rattus norvegicus, survival for 24 hours
Method: Conscious male Wistar rats, 150-200 g body weight, 7 weeks old, were used in the experiment on PAF-induced lethality. The animals were fasted before the experiment. Test compound was given orally 60 minutes before (or intravenously simultaneously with) intravenous PAF injection (10 μg/kg) into a tail vein. Survival of the animals was recorded for 24 hours after intravenous PAF injection.

In the case of `CN(C)CCN1C(=O)CC2(CCCCC2Cc2ccccc2Cl)[S+]([O-])c2ccccc21` (stereo not shown) [2'-(2-Chlorophenylmethyl)-4,5-dihydro-4-oxo-5-{2-(N,N-dimethylamino)ethyl}spiro[1,5-benzothiazepine-2(3H), 1'-cyclohexane] 1-oxide], the IC50 [1] is reported as 0.17 µg/mL (≈ 0.37 µM).
In the case of `O=C1CC2(CCCCC2Cc2cccc(Cl)c2)S(=O)(=O)CCN1Cc1cccnc1` (stereo not shown) [1-(3-Chlorophenylmethyl)-10-(3-pyridylmethyl)-11-oxo-7-thia-10-azaspiro[5.6]dodecane 7,7-dioxide], the ED50 [2] is reported as 2.9 mg/kg.
`O=C1C[C@]2(CCCC[C@H]2Cc2ccccc2)S(=O)(=O)CCN1Cc1cccnc1` [(1S,6S)-1-Phenylmethyl-10-(3-pyridylmethyl)-11-oxo-7-thia-10-azaspiro[5.6]dodecane 7,7-dioxide] gave an ED50 [3] of 3.7 mg/kg, an ED50 ([4]; intravenous, simultaneous with endotoxin 10 mg/kg, serum FDP at 4 hours, read-out: ED50 (mg/kg), endotoxin-induced DIC, intravenous) of 2.4 mg/kg and an ED50 ([4]; oral, 60 minutes before and 6 hours after endotoxin 10 mg/kg, serum FDP at 24 hours, read-out: ED50 (mg/kg), endotoxin-induced DIC, oral) of 6.8 mg/kg. It also gave an ED50 ([5]; intravenous, simultaneously with PAF 10 μg/kg i.v., read-out: ED50 (mg/kg), PAF-induced lethality, intravenous) of 1 mg/kg and an ED50 ([5]; oral, 60 minutes before PAF 10 μg/kg i.v., read-out: ED50 (mg/kg), PAF-induced lethality, oral) of 2 mg/kg.
